Here are results for seven compounds from US20160286810A1, “ACTIVE COMPOUND COMBINATIONS” (BAYER CROPSCIENCE AG, priority 2012, published 2016).

SMILES strings stand for the structures.

What all share (format): in vivo
In one assay the test system is Leptosphaeria nodorum. The experiment in a line: Leptosphaeria nodorum test (wheat)/preventive. Conditions: preventive, 8 days after inoculation. On the procedure:
Solvent: 49 parts by weight of N,N-dimethylacetamide Emulsifier: 1 part by weight of alkylaryl polyglycol ether To produce a suitable preparation of active compound, 1 part by weight of active compound or active compound combination is mixed with the stated amounts of solvent and emulsifier, and the concentrate is diluted with water to the desired concentration. To test for preventive activity, young plants are sprayed with the preparation of active compound or active compound combination at the stated rate of application. After the spray coating has been dried, the plants are sprayed with a spore suspension of Leptosphaeria nodorum. The plants remain for 48 hours in an incubation cabinet at approximately 20° C. and a relative atmospheric humidity of approximately 100%. The plants are placed in the greenhouse at a temperature of approximately 22° C. and a relative atmospheric humidity of approximately 80%. The test is evaluated 8 days after the inoculation. 0% means an efficacy which corresponds to that of the untreated control, while an efficacy of 100% means that no disease is observed.

For a further assay, the system named is Venturia inaequalis. The experiment in a line: Venturia test (apples)/preventive. As to conditions: preventive, 10 days after inoculation. On the procedure: (§1) Solvent: 24.5 parts by weight of acetone • 24.5 parts by weight of dimethylacetamide Emulsifier: 1 part by weight of alkylaryl polyglycol ether
(§2) To produce a suitable preparation of active compound, 1 part by weight of active compound is mixed with the stated amounts of solvent and emulsifier, and the concentrate is diluted with water to the desired concentration.
To test for preventive activity, young plants are sprayed with the preparation of active compound at the stated rate of application. After the spray coating has dried on, the plants are inoculated with an aqueous conidia suspension of the causal agent of apple scab (Venturia inaequalis) and then remain for 1 day in an incubation cabinet at approximately 20° C. and a relative atmospheric humidity of 100%.
The plants are then placed in a greenhouse at approximately 21° C. and a relative atmospheric humidity of approximately 90%.
The test is evaluated 10 days after the inoculation. 0% means an efficacy which corresponds to that of the untreated control, while an efficacy of 100% means that no disease is observed.

The subject of another assay is Alternaria solani. In words: Alternaria test (tomatoes)/preventive. Conditions: preventive, 3 days after inoculation. On the procedure:
as §1, §2
To test for preventive activity, young plants are sprayed with the preparation of active compound at the stated rate of application. After the spray coating has dried on, the plants are inoculated with an aqueous spore suspension of Alternaria solani. The plants are then placed in an incubation cabinet at approximately 20° C. and a relative atmospheric humidity of 100%.
The test is evaluated 3 days after the inoculation. 0% means an efficacy which corresponds to that of the untreated control while an efficacy of 100% means that no disease is observed.

The test system of another assay is Botrytis cinerea. The experiment in a line: Botrytis test (beans)/preventive. As to conditions: preventive, 2 days after inoculation. On the procedure:
as §1, §2
To test for preventive activity, young plants are sprayed with the preparation of active compound. After the spray coating has dried on, 2 small pieces of agar covered with growth of Botrytis cinerea are placed on each leaf. The inoculated plants are placed in a darkened chamber at 20° C. and a relative atmospheric humidity of 100%.
2 days after the inoculation, the size of the lesions on the leaves is evaluated. 0% means an efficacy which corresponds to that of the untreated control, while an efficacy of 100% means that no disease is observed.

Consider `Cc1cc(OC(C)C)ccc1C(=O)C(C)(C)NC(=O)c1sccc1C` [Ex 13, N-[1-(4-isopropoxy-2-methylphenyl)-2-methyl-1-oxopropan-2-yl]-3-methylthiophene-2-carboxamide], for which the “Efficacy in % found” value in the assay with Leptosphaeria nodorum (250 ppm a.i.) turned out to be 25%; with Venturia inaequalis (10 ppm a.i.) it was 64%; in the assay with Alternaria solani (20 ppm a.i.) it was 52%.

For the compound `CNC(=O)C(OC)c1ccccc1COc1cc(C)ccc1C` (stereo not drawn) [Ex 14, N-methyl-alpha-methoxy-2-[(2,5-dimethylphenoxy)methyl]phenylacetamide], the “Efficacy in % found” value in the assay on Leptosphaeria nodorum (250 ppm a.i.) was determined as 25%; in the assay on Botrytis cinerea (1.25 ppm a.i.), 0%; in the assay with Venturia inaequalis (1.25 ppm a.i.) it was 31%; with Alternaria solani (5 ppm a.i.) it was 52%.

For `Cn1c(=O)c2sc3c(=O)n(C)c(=O)c3sc2c1=O` [(I-1), 2,6-dimethyl-1H,5H-[1,4]dithiino[2,3-c:5,6-c′]dipyrrole-1,3,5,7(2H,6H)-tetrone], the “Efficacy in % found” value with Leptosphaeria nodorum (1000 ppm a.i.) was determined as 0%; in the assay on Botrytis cinerea (12.5 ppm a.i.) it was 15%; with Botrytis cinerea (25 ppm a.i.), 33%; in the assay with Venturia inaequalis (12.5 ppm a.i.) it was 0%; with Venturia inaequalis (25 ppm a.i.), 15%; in the assay with Venturia inaequalis (50 ppm a.i.), 62%. The “Efficacy in % found” value in the assay on Alternaria solani (50 ppm a.i.) was 29%; in the assay on Alternaria solani (100 ppm a.i.), 26%.

Consider `OC(c1cccnc1)c1c(-c2ccc(Cl)cc2F)noc1-c1ccc(F)cc1F` (centres unmarked) [Ex 15, [3-(4-chloro-2-fluorophenyl)-5-(2,4-difluorophenyl)-1,2-oxazol-4-yl](pyridin-3-yl)methanol], for which the “Efficacy in % found” value in the assay with Leptosphaeria nodorum (250 ppm a.i.) was 88%; in the assay with Botrytis cinerea (2.5 ppm a.i.) it was 0%; in the assay with Venturia inaequalis (5 ppm a.i.) it was 60%; with Alternaria solani (5 ppm a.i.), 24%.

Take `CC1(C)N=C(c2cnc3ccccc3c2)c2cccc(F)c2C1(F)F` [Ex 12, 3-(4,4,5-trifluoro-3,3-dimethyl-3,4-dihydroisoquinolin-1-yl)quinoline]: the “Efficacy in % found” value was determined as 75% in the assay on Leptosphaeria nodorum (250 ppm a.i.), 35% with Botrytis cinerea (0.5 ppm a.i.), 46% in the assay on Venturia inaequalis (0.25 ppm a.i.) and 13% in the assay with Alternaria solani (50 ppm a.i.).

Turning to `CC1(C)N=C(c2cnc3ccccc3c2)c2cccc(F)c2C1(C)C` [Ex 11, 3-(5-fluoro-3,3,4,4-tetramethyl-3,4-dihydroisoquinolin-1-yl)quinoline], the “Efficacy in % found” value in the assay on Leptosphaeria nodorum (250 ppm a.i.) was 75%; with Botrytis cinerea (0.5 ppm a.i.) it was 30%; in the assay with Venturia inaequalis (1 ppm a.i.), 0%; in the assay with Alternaria solani (50 ppm a.i.), 38%.

Turning to `CC1(C)N=C(c2cnc3ccccc3c2)c2ccccc2C1(F)F` [Ex 10, 3-(4,4-difluoro-3,3-dimethyl-3,4-dihydroisoquinolin-1-yl)quinoline], the figures for the “Efficacy in % found” value in the assay on Leptosphaeria nodorum (250 ppm a.i.) and with Alternaria solani (100 ppm a.i.) were 88% and 37%, respectively.
